Measurements from patent US7848557B2, “Rapid multi-tracer PET imaging systems and methods” (priority 2007, dated 2010).
Read-outs that look alike come from different tables or passages of the source.

How the values were obtained:
[1] = for k1^Stress / k2^Stress / k3^Stress: adenosine stress; for k1^Rest: ± SD from fit covariance
Protocol: Data acquisition. PET scans can be performed using, for example, an Advance™ PET scanner (GE Medical Systems, Waukesha, Wis.) operated in 2D mode, though other PET scanners are contemplated within the scope of this invention. Human subjects, when used, were positioned with arms down and a strap was placed across the chest to immobilize the subject and minimize movement artifacts. Transmission scans (^68Ge rod source) were acquired to position the heart in the field of view (2 min) and for attenuation correction (10 min). […] Scans performed during stress were started at the midpoint of a 6 minute adenosine infusion (0.14 mg kg^−1 min^−1) while vital signs including pulse rate, blood pressure and oxygen saturation were assessed by a physician using standard monitoring equipment.
Dynamic PET data were acquired with a waiting period of about 50-71 min between rest and stress emission scans. Imaging protocols were designed to allow rest and stress components to be added to emulate rapid dual-injection data as further described herein. Rest and stress emission scan data were acquired separately using the following temporal sampling schedule for the first 10 minutes: (12×5 s, 6×10 s, 6×30 s and 5×1 min). For rest scans, this schedule was repeated for another 10 minutes for a total emission scan duration of about 20 minutes. This provided equal duration stress timeframes that could be shifted in time and added to the rest timeframes in order to mimic a rapid dual-injection acquisition while retaining standard single-injection emission scan sequences.
Data processing. According to one embodiment, images were reconstructed using filtered back-projection with a Hanning window cutoff at 1.56 cycles cm^−1. The 128×128 image matrices had 4.3 mm voxels and a slice thickness of 4.25 mm. Data were pre-corrected for attenuation, scatter and randoms prior to reconstruction, but not for radioactive decay because it was included in the kinetic modeling equations. A reference image for each scan was created by summing up timeframes with steady uptake of tracer in the myocardium and used as a guide for reorienting to cardiac short-axis (SA) images. The SA images for all rest and stress timeframes in each subject were co-registered using a template showing the endocardial and epicardial boundaries. Based on visual comparison of an average mid-ventricular slice from each timeframe, the entire SA image volume was shifted manually to align with the template in the plane perpendicular to the SA of the heart. Co-registration was not performed in timeframes where myocardium and blood pool were indistinguishable.
Myocardial regions were selected based on a 17-segment model of the American Society of Nuclear Cardiology (Schelbert et al. 2003), known to those of ordinary skill in the art. On each slice of a reference image, endocardial and epicardial boundaries were drawn and the angle of insertion of the right ventricle into the septum was selected as a landmark for division into sectors. The myocardium was divided into one apical region, four sectors in the apical mid-ventricle, six sectors in the basal mid-ventricle and six sectors in the base of the heart. Blood pool regions were drawn manually in each subject with size restricted to limit partial volume effect and spillover of activity from the myocardium. In each subject, the same regions were applied to all co-registered rest and stress timeframes.

[2] = Arterial blood sampling with octanol separation of freely available and bound fractions; format: in vivo, dogs; settings: 10 min. after injection; remaining activity albumin bound
Protocol: Arterial blood sampling. Blood samples (approximately 0.4-0.5 ml) were drawn from an AV shunt on a schedule similar to the scanning schedule for determination of the arterial input functions. […] Each sample was weighed and counted in a well counter soon after withdrawal, and corrections for radioactive decay were applied to recover time-activity curves for the whole-blood and freely-available arterial input functions for use with compartment modeling. […] While this could potentially complicate measurement of the input function for each tracer; however, at 10 min. after injection the octanol-extractable fraction of PTSM in the blood was only ˜1%, with the remaining activity albumin bound.

[3] = emulated dual-injection, background subtraction, one typical myocardial region
[4] = emulated dual-injection, combined modeling, one typical myocardial region
[5] = separate single-injection, one typical myocardial region

[13NH3] [^13N-ammonia]
k1^Stress [1, 3]: 3.50 ± 0.32 mL/min/g | k2^Stress [1, 3]: 0.80 ± 0.17 | k3^Stress [1, 3]: 0.24 ± 0.04 | k1^Stress [1, 4]: 3.44 ± 0.32 mL/min/g | k2^Stress [1, 4]: 0.79 ± 0.17 | k3^Stress [1, 4]: 0.24 ± 0.04 | k1^Stress [1, 5]: 3.33 ± 0.27 mL/min/g | k2^Stress [1, 5]: 0.69 ± 0.12 | k3^Stress [1, 5]: 0.20 ± 0.03 | k1^Rest ([1]; emulated dual-injection data, background subtraction, one typical myocardial region): 0.92 ± 0.05 mL/min/g | k1^Rest ([1]; emulated dual-injection data, combined modeling, 20 min, one typical myocardial region): 0.93 ± 0.05 mL/min/g | k2^Rest [1, 3]: 0.13 ± 0.04 | k3^Rest [1, 3]: 0.08 ± 0.07 | k4^Rest [1, 3]: 0.47 ± 0.02 | k2^Rest [1, 4]: 0.14 ± 0.04 | k3^Rest [1, 4]: 0.11 ± 0.06 | k4^Rest [1, 4]: 0.47 ± 0.02 | k1^Rest ([1]; separate single-injection, first 10 min of data, one typical myocardial region (FIG. 5)): 0.92 ± 0.05 mL/min/g | k2^Rest [1, 5]: 0.13 ± 0.04 | k3^Rest [1, 5]: 0.08 ± 0.07 | k4^Rest [1, 5]: 0.47 ± 0.02

CNC(=S)NN=CC(C)=NNC(=S)NC.[Cu] [PTSM, copper-pyruvaldehyde-bis[N4-methylthiosemicarbazone]]
octanol-extractable fraction in the blood [2]: roughly 1%
